Data published in the NIST ThermoML archive (doi:10.1016/j.jct.2004.07.031).
Where “and” joins values, the source holds several entries; their conditions need not be identical. Equal entries are not always repeated. Numbers after ± are expanded uncertainties.

Test: molar heat capacity at constant pressure
Conditions: 101.33 kPa, Crystal, PPMS instrument (Quantum Design)

O=P([O-])([O-])[O-].[Gd+3] [gadolinium orthophosphate]
Conditions	molar heat capacity at constant pressure
0.525 K	7.722 ± 0.24 J/K/mol
0.536 K	8.106 ± 0.26 J/K/mol
0.547 K	8.475 ± 0.27 J/K/mol
0.558 K	8.855 ± 0.29 J/K/mol
0.569 K	9.277 ± 0.3 J/K/mol
0.58 K	9.631 ± 0.31 J/K/mol
0.591 K	10.11 ± 0.33 J/K/mol
0.602 K	10.69 ± 0.35 J/K/mol
0.614 K	11.24 ± 0.37 J/K/mol
0.625 K	11.83 ± 0.4 J/K/mol
0.637 K	12.57 ± 0.42 J/K/mol
0.648 K	13.42 ± 0.45 J/K/mol
0.659 K	14.37 ± 0.49 J/K/mol
0.67 K	15.29 ± 0.52 J/K/mol
0.681 K	16.55 ± 0.57 J/K/mol
0.693 K	17.9 ± 0.62 J/K/mol
0.703 K	19.56 ± 0.68 J/K/mol
0.715 K	21.6 ± 0.76 J/K/mol
0.726 K	24.07 ± 0.84 J/K/mol
0.73 K	25.16 ± 0.88 J/K/mol
0.733 K	26.31 ± 0.92 J/K/mol
0.737 K	27.55 ± 0.97 J/K/mol
0.738 K	27.92 ± 0.98 J/K/mol
0.742 K	29.69 ± 1 J/K/mol
0.743 K	29.92 ± 1.1 J/K/mol
0.745 K	31.34 ± 1.1 J/K/mol
0.747 K	31.86 ± 1.1 J/K/mol
0.75 K	33.48 ± 1.2 J/K/mol
0.751 K	34.37 ± 1.2 J/K/mol
0.752 K	35.17 ± 1.3 J/K/mol
0.755 K	37.19 ± 1.3 J/K/mol
0.756 K	37.83 ± 1.4 J/K/mol
0.758 K	40.08 ± 1.4 J/K/mol
0.76 K	41.57 ± 1.5 J/K/mol
0.763 K	44.62 ± 1.6 J/K/mol
0.764 K	46.25 ± 1.7 J/K/mol
0.765 K	47.54 ± 1.7 J/K/mol
0.768 K	50.76 ± 1.8 J/K/mol
0.77 K	52.55 ± 1.9 J/K/mol
0.772 K	53.77 ± 1.9 J/K/mol
0.773 K	54.78 ± 2 J/K/mol
0.776 K	54.21 ± 2 J/K/mol
0.777 K	51.7 ± 1.9 J/K/mol and 54.18 ± 2 J/K/mol
0.782 K	37.73 ± 1.4 J/K/mol
0.783 K	33.58 ± 1.2 J/K/mol
0.784 K	31.28 ± 1.1 J/K/mol
0.786 K	23.82 ± 0.85 J/K/mol
0.79 K	19.56 ± 0.69 J/K/mol
0.791 K	19.09 ± 0.67 J/K/mol
0.794 K	17.74 ± 0.62 J/K/mol
0.796 K	16.84 ± 0.59 J/K/mol
0.797 K	16.39 ± 0.57 J/K/mol
0.799 K	15.8 ± 0.54 J/K/mol
0.8 K	15.62 ± 0.54 J/K/mol
0.804 K	14.83 ± 0.51 J/K/mol
0.806 K	14.48 ± 0.49 J/K/mol
0.816 K	13.11 ± 0.45 J/K/mol
0.843 K	11.32 ± 0.35 J/K/mol
0.867 K	10.3 ± 0.32 J/K/mol
0.872 K	10.13 ± 0.32 J/K/mol
0.882 K	9.827 ± 0.31 J/K/mol
0.89 K	9.584 ± 0.3 J/K/mol
0.892 K	9.579 ± 0.3 J/K/mol
0.902 K	9.269 ± 0.29 J/K/mol
0.912 K	9.065 ± 0.29 J/K/mol
0.914 K	9.009 ± 0.28 J/K/mol
0.922 K	8.871 ± 0.28 J/K/mol
0.933 K	8.692 ± 0.27 J/K/mol
0.939 K	8.538 ± 0.27 J/K/mol
0.942 K	8.499 ± 0.27 J/K/mol
0.952 K	8.332 ± 0.26 J/K/mol
0.962 K	8.221 ± 0.26 J/K/mol
0.963 K	8.167 ± 0.26 J/K/mol
0.973 K	8.056 ± 0.25 J/K/mol
0.983 K	7.933 ± 0.25 J/K/mol
0.986 K	7.919 ± 0.25 J/K/mol
0.993 K	7.852 ± 0.25 J/K/mol
1.003 K	7.778 ± 0.25 J/K/mol
1.01 K	7.554 ± 0.24 J/K/mol
1.059 K	6.868 ± 0.22 J/K/mol
1.141 K	6.058 ± 0.2 J/K/mol
1.22 K	5.523 ± 0.18 J/K/mol
1.301 K	4.919 ± 0.16 J/K/mol
1.381 K	4.476 ± 0.15 J/K/mol
1.461 K	4.061 ± 0.14 J/K/mol
1.544 K	3.711 ± 0.14 J/K/mol
1.619 K	3.447 ± 0.18 J/K/mol
1.699 K	3.178 ± 0.42 J/K/mol
1.78 K	2.944 ± 0.14 J/K/mol
1.841 K	2.578 ± 0.12 J/K/mol
1.86 K	2.751 ± 0.12 J/K/mol
1.94 K	2.578 ± 0.1 J/K/mol
2.02 K	2.372 ± 0.092 J/K/mol
2.234 K	1.874 ± 0.072 J/K/mol
2.648 K	1.377 ± 0.049 J/K/mol
3.055 K	1.063 ± 0.037 J/K/mol
3.464 K	0.8457 ± 0.027 J/K/mol
3.872 K	0.6931 ± 0.022 J/K/mol
4.291 K	0.57 ± 0.018 J/K/mol
4.675 K	0.4911 ± 0.015 J/K/mol
5.081 K	0.4292 ± 0.013 J/K/mol
5.499 K	0.3415 ± 0.01 J/K/mol
5.896 K	0.3389 ± 0.01 J/K/mol
6.3 K	0.3079 ± 0.0093 J/K/mol
6.728 K	0.2809 ± 0.0085 J/K/mol
7.126 K	0.2659 ± 0.008 J/K/mol
7.523 K	0.2545 ± 0.0076 J/K/mol
7.936 K	0.2483 ± 0.0075 J/K/mol
8.343 K	0.2454 ± 0.0074 J/K/mol
8.747 K	0.246 ± 0.0074 J/K/mol
8.971 K	0.2476 ± 0.0074 J/K/mol
9.151 K	0.2497 ± 0.0075 J/K/mol
9.554 K	0.2573 ± 0.0077 J/K/mol
9.964 K	0.2698 ± 0.0081 J/K/mol
9.976 K	0.2696 ± 0.0081 J/K/mol
10.96 K	0.3114 ± 0.0094 J/K/mol
11.94 K	0.3719 ± 0.011 J/K/mol
12.94 K	0.4546 ± 0.014 J/K/mol
13.93 K	0.5628 ± 0.017 J/K/mol
14.93 K	0.6954 ± 0.021 J/K/mol
15.93 K	0.8555 ± 0.026 J/K/mol
16.93 K	1.039 ± 0.031 J/K/mol
17.94 K	1.247 ± 0.038 J/K/mol
18.95 K	1.476 ± 0.045 J/K/mol
19.95 K	1.752 ± 0.053 J/K/mol
20.95 K	2.036 ± 0.061 J/K/mol
21.96 K	2.353 ± 0.071 J/K/mol
22.97 K	2.692 ± 0.081 J/K/mol
23.97 K	3.053 ± 0.092 J/K/mol
24.98 K	3.44 ± 0.1 J/K/mol
25.98 K	3.849 ± 0.12 J/K/mol
26.99 K	4.279 ± 0.13 J/K/mol
28 K	4.714 ± 0.14 J/K/mol
29 K	5.169 ± 0.16 J/K/mol
30.01 K	5.631 ± 0.17 J/K/mol
32 K	6.652 ± 0.2 J/K/mol
34 K	7.603 ± 0.23 J/K/mol
36.02 K	8.663 ± 0.26 J/K/mol
38.05 K	9.792 ± 0.29 J/K/mol
40.06 K	10.89 ± 0.33 J/K/mol
42.08 K	12.02 ± 0.36 J/K/mol
44.09 K	13.17 ± 0.4 J/K/mol
46.11 K	14.35 ± 0.43 J/K/mol
48.12 K	15.55 ± 0.47 J/K/mol
50.14 K	16.75 ± 0.5 J/K/mol
53.15 K	18.58 ± 0.56 J/K/mol
56.16 K	20.4 ± 0.61 J/K/mol
59.19 K	22.22 ± 0.67 J/K/mol
62.22 K	24.02 ± 0.72 J/K/mol
65.24 K	25.8 ± 0.77 J/K/mol
68.26 K	27.54 ± 0.83 J/K/mol
71.29 K	29.29 ± 0.88 J/K/mol
74.3 K	31.02 ± 0.93 J/K/mol
77.33 K	32.72 ± 0.98 J/K/mol
80.35 K	34.4 ± 1 J/K/mol
85.39 K	37.09 ± 1.1 J/K/mol
92.14 K	40.56 ± 1.2 J/K/mol
98.9 K	43.87 ± 1.3 J/K/mol
105.7 K	47.02 ± 1.4 J/K/mol
112.4 K	50.06 ± 1.5 J/K/mol
119.2 K	53.01 ± 1.6 J/K/mol
126 K	55.84 ± 1.7 J/K/mol
132.7 K	58.53 ± 1.8 J/K/mol
139.5 K	61.13 ± 1.8 J/K/mol
146.3 K	63.67 ± 1.9 J/K/mol
153 K	65.98 ± 2 J/K/mol
159.8 K	68.28 ± 2 J/K/mol
166.6 K	70.53 ± 2.1 J/K/mol
173.3 K	72.7 ± 2.2 J/K/mol
180.1 K	74.71 ± 2.2 J/K/mol
186.8 K	76.76 ± 2.3 J/K/mol
193.6 K	78.76 ± 2.4 J/K/mol
200.4 K	80.59 ± 2.4 J/K/mol
207.1 K	82.32 ± 2.5 J/K/mol
213.8 K	84.09 ± 2.5 J/K/mol
220.6 K	85.76 ± 2.6 J/K/mol
227.4 K	87.27 ± 2.6 J/K/mol
234.1 K	88.95 ± 2.7 J/K/mol
240.9 K	90.53 ± 2.7 J/K/mol
247.7 K	92.18 ± 2.8 J/K/mol
254.4 K	93.53 ± 2.8 J/K/mol
261.1 K	94.92 ± 2.8 J/K/mol
267.9 K	96.45 ± 2.9 J/K/mol
274.6 K	97.84 ± 2.9 J/K/mol
281.3 K	98.99 ± 3 J/K/mol
288.1 K	100.29 ± 3 J/K/mol
294.8 K	101.42 ± 3 J/K/mol
301.6 K	102.56 ± 3.1 J/K/mol
